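Tested at 5 concentrations; 48 h exposure; 96-well plates; endpoints linearly interpolated, else capped at highest concentration. Here, GI50 denotes the concentration required for 50% inhibition of growth.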 The source made the active and inactive calls. Rule as the data show it: active = GI50 up to about 1.1 µM and inactive = higher.
How the values were obtained:
Assay in all cases: growth of human tumour cells (NCI), 48 h
KM12 = tested on: KM12
NCI-H226 = tested on: NCI-H226
SF-268 = tested on: SF-268
UACC-257 = tested on: UACC-257
NCI-H460 = tested on: NCI-H460
NCI-H23 = tested on: NCI-H23
MCF7 = tested on: MCF7
A498 = tested on: A498
M14 = tested on: M14
SK-OV-3 = tested on: SK-OV-3
Hs-578T = tested on: Hs-578T
HT-29 = tested on: HT-29
OVCAR-8 = tested on: OVCAR-8
OVCAR-4 = tested on: OVCAR-4
T47D = tested on: T47D
OVCAR-5 = tested on: OVCAR-5
786-0 = tested on: 786-0
EKVX = tested on: EKVX
HL-60 = tested on: HL-60

| SMILES | GI50 (KM12) | GI50 (NCI-H226) | GI50 (SF-268) | GI50 (UACC-257) | GI50 (NCI-H460) | GI50 (NCI-H23) | GI50 (MCF7) | GI50 (A498) | GI50 (M14) | GI50 (SK-OV-3) | GI50 (Hs-578T) | GI50 (HT-29) | GI50 (OVCAR-8) | GI50 (OVCAR-4) | GI50 (T47D) | GI50 (OVCAR-5) | GI50 (786-0) | GI50 (EKVX) | GI50 (HL-60) |
| --- | --- | --- | --- | --- | --- | --- | --- | --- | --- | --- | --- | --- | --- | --- | --- | --- | --- | --- | --- |
| O=[N+]([O-])c1ccc(N2N=C(c3ccc4ccccc4c3O)CC2c2ccc(Cl)cc2)c([N+](=O)[O-])c1 (stereo unspecified) | 21.8 µM (inactive) | 50.8 µM (inactive) | 45.7 µM (inactive) | 32.1 µM (inactive) | 25.4 µM (inactive) | > 100 µM (inactive) | 20.3 µM (inactive) | 27.2 µM (inactive) | 50.4 µM (inactive) | 80.2 µM (inactive) | 37.9 µM (inactive) | 33 µM (inactive) | 37.3 µM (inactive) | 55.1 µM (inactive) | 51.4 µM (inactive) | > 100 µM (inactive) | 44 µM (inactive) | – | – |
| OB(O)c1ccccc1C#Cc1ccccc1B(O)O | 13.9 µM (inactive) | – | 11.5 µM (inactive) | 0.55 µM (active) | 14.4 µM (inactive) | 24 µM (inactive) | 3.13 µM (inactive) | 3.04 µM (inactive) | 22.7 µM (inactive) | 24 µM (inactive) | 14.6 µM (inactive) | 42.7 µM (inactive) | 22.6 µM (inactive) | – | 2.98 µM (inactive) | 27.4 µM (inactive) | 28.4 µM (inactive) | 16.9 µM (inactive) | 21.4 µM (inactive) |
| CCCCCC(=O)NC(=S)Nc1nnn[nH]1 | > 100 µM (inactive) | – | > 100 µM (inactive) | > 100 µM (inactive) | > 100 µM (inactive) | > 100 µM (inactive) | > 100 µM (inactive) | > 100 µM (inactive) | > 100 µM (inactive) | > 100 µM (inactive) | > 100 µM (inactive) | – | – | > 100 µM (inactive) | > 100 µM (inactive) | > 100 µM (inactive) | > 100 µM (inactive) | > 100 µM (inactive) | > 100 µM (inactive) |
| N#Cc1sc2nc3ccccc3n2c1N | 0.344 µM (active) | 95.9 µM (inactive) | 60.3 µM (inactive) | > 100 µM (inactive) | – | 52.5 µM (inactive) | 84.5 µM (inactive) | 39.4 µM (inactive) | > 100 µM (inactive) | 40.1 µM (inactive) | 36.2 µM (inactive) | 75 µM (inactive) | 78.2 µM (inactive) | > 100 µM (inactive) | 89.7 µM (inactive) | > 100 µM (inactive) | > 100 µM (inactive) | 85.1 µM (inactive) | – |
| COC1(OC)c2no[n+]([O-])c2C(OC)(OC)c2c1no[n+]2[O-] | 11.7 µM (inactive) | 24.5 µM (inactive) | 25.7 µM (inactive) | 12.5 µM (inactive) | 26.7 µM (inactive) | 11.4 µM (inactive) | 14.1 µM (inactive) | 19.1 µM (inactive) | 12.3 µM (inactive) | – | 31.4 µM (inactive) | 17.3 µM (inactive) | 13.4 µM (inactive) | 21.9 µM (inactive) | 21.8 µM (inactive) | 21.3 µM (inactive) | 18.5 µM (inactive) | 14.7 µM (inactive) | 37.3 µM (inactive) |
| C/C=C1\CN2CCC34c5ccccc5N(C)C35OCC4(C(=O)OC)C1CC25 (stereo unspecified) | 37.1 µM (inactive) | – | > 100 µM (inactive) | 32.4 µM (inactive) | 25.5 µM (inactive) | 56.9 µM (inactive) | 40.7 µM (inactive) | > 100 µM (inactive) | 21.4 µM (inactive) | > 100 µM (inactive) | 54.8 µM (inactive) | – | – | 51.2 µM (inactive) | 28.8 µM (inactive) | > 100 µM (inactive) | 76.2 µM (inactive) | 77.1 µM (inactive) | 15.2 µM (inactive) |
| Cc1ccc(S(=O)(=O)N2CCN3C(=O)c4ccccc4C32c2ccc(F)cc2)cc1 (stereo unspecified) | 43.7 µM (inactive) | 64 µM (inactive) | 98.4 µM (inactive) | 56 µM (inactive) | 67.6 µM (inactive) | 97.7 µM (inactive) | 43.4 µM (inactive) | 16.2 µM (inactive) | > 100 µM (inactive) | > 100 µM (inactive) | > 100 µM (inactive) | 40.6 µM (inactive) | > 100 µM (inactive) | > 100 µM (inactive) | 56.6 µM (inactive) | > 100 µM (inactive) | > 100 µM (inactive) | 67.8 µM (inactive) | – |
| Cc1ncc([N+](=O)[O-])n1CCN=[N+]=[N-] | > 100 µM (inactive) | > 100 µM (inactive) | > 100 µM (inactive) | > 100 µM (inactive) | > 100 µM (inactive) | > 100 µM (inactive) | > 100 µM (inactive) | > 100 µM (inactive) | > 100 µM (inactive) | > 100 µM (inactive) | > 100 µM (inactive) | > 100 µM (inactive) | > 100 µM (inactive) | > 100 µM (inactive) | > 100 µM (inactive) | > 100 µM (inactive) | > 100 µM (inactive) | > 100 µM (inactive) | – |
| O=C(NNC(=O)c1ccccc1Cl)c1ccccc1O | 20.1 µM (inactive) | 3.42 µM (inactive) | 10.6 µM (inactive) | > 100 µM (inactive) | 23.6 µM (inactive) | – | 41.4 µM (inactive) | > 100 µM (inactive) | 39.7 µM (inactive) | 18.2 µM (inactive) | 41.9 µM (inactive) | 23.8 µM (inactive) | 19.8 µM (inactive) | > 100 µM (inactive) | > 100 µM (inactive) | > 100 µM (inactive) | 87.1 µM (inactive) | 16.3 µM (inactive) | – |
| C=Cn1c([N+](=O)[O-])cnc1/C=C/c1ccc(C(=O)OCCN2CCOCC2)cc1 | > 100 µM (inactive) | > 100 µM (inactive) | > 100 µM (inactive) | > 100 µM (inactive) | > 100 µM (inactive) | > 100 µM (inactive) | > 100 µM (inactive) | 75.5 µM (inactive) | > 100 µM (inactive) | > 100 µM (inactive) | 88.1 µM (inactive) | > 100 µM (inactive) | > 100 µM (inactive) | > 100 µM (inactive) | > 100 µM (inactive) | > 100 µM (inactive) | > 100 µM (inactive) | > 100 µM (inactive) | – |
| O=c1[nH]nc(-c2ccccc2)n1/N=C\CC/C=N\n1c(-c2ccccc2)n[nH]c1=O | 34.8 µM (inactive) | 24.5 µM (inactive) | 26.1 µM (inactive) | > 82.2 µM (inactive) | > 47.6 µM (inactive) | 14.3 µM (inactive) | 26.7 µM (inactive) | – | 20.6 µM (inactive) | 28.6 µM (inactive) | 24.9 µM (inactive) | 19.4 µM (inactive) | 30.1 µM (inactive) | 52.4 µM (inactive) | 30.8 µM (inactive) | 60 µM (inactive) | 26.5 µM (inactive) | 44.3 µM (inactive) | 29.2 µM (inactive) |
| COc1cc2c3c([nH]c2c(OC)c1OC)CCN(Cc1ccccc1)C3 | > 100 µM (inactive) | 20.9 µM (inactive) | 62.5 µM (inactive) | 19.9 µM (inactive) | 14.9 µM (inactive) | 33.1 µM (inactive) | 18.1 µM (inactive) | 22.3 µM (inactive) | 14.1 µM (inactive) | – | 32.4 µM (inactive) | 11.4 µM (inactive) | > 100 µM (inactive) | 64.7 µM (inactive) | 24.8 µM (inactive) | 23.8 µM (inactive) | 22.3 µM (inactive) | > 100 µM (inactive) | 21.4 µM (inactive) |
| N#Cc1c(N)c2c(c(-c3ccccc3)c1-c1ccccc1)C(=O)N(NC(=O)c1ccccc1)C2=O | > 100 µM (inactive) | > 100 µM (inactive) | > 100 µM (inactive) | > 100 µM (inactive) | 55.1 µM (inactive) | – | 61.2 µM (inactive) | 41.9 µM (inactive) | > 100 µM (inactive) | – | 90.6 µM (inactive) | – | > 100 µM (inactive) | > 100 µM (inactive) | 32.1 µM (inactive) | > 100 µM (inactive) | 76.9 µM (inactive) | > 100 µM (inactive) | 58.2 µM (inactive) |
| COC(=O)c1c2c(cc3c1CC1(Cc4cc5c(cc4C1)CCC5)C3)CCC2 | – | – | > 100 µM (inactive) | > 100 µM (inactive) | > 100 µM (inactive) | > 100 µM (inactive) | > 100 µM (inactive) | > 100 µM (inactive) | > 100 µM (inactive) | > 100 µM (inactive) | > 100 µM (inactive) | > 100 µM (inactive) | > 100 µM (inactive) | > 100 µM (inactive) | > 100 µM (inactive) | > 100 µM (inactive) | > 100 µM (inactive) | > 100 µM (inactive) | > 100 µM (inactive) |
| C=C1C(=O)O[C@@H]2[C@H]1C[C@@H](O)[C@H](C)[C@@](O)(C(=O)/C=C/C)[C@H]2OC(=O)C(C)CC (stereo partly specified) | 14.8 µM (inactive) | 43.4 µM (inactive) | 15.4 µM (inactive) | 3.1 µM (inactive) | 28.8 µM (inactive) | 5.31 µM (inactive) | 4.81 µM (inactive) | 18.7 µM (inactive) | 3.3 µM (inactive) | 42.2 µM (inactive) | 2.72 µM (inactive) | 2.24 µM (inactive) | 2.22 µM (inactive) | 6.97 µM (inactive) | 5.7 µM (inactive) | 5.47 µM (inactive) | 2.61 µM (inactive) | 8.57 µM (inactive) | – |
| CC(=O)C(CN1C(=O)c2ccccc2C1=O)C(C)=O | – | > 100 µM (inactive) | > 100 µM (inactive) | > 100 µM (inactive) | > 100 µM (inactive) | > 100 µM (inactive) | > 100 µM (inactive) | > 100 µM (inactive) | > 100 µM (inactive) | > 100 µM (inactive) | > 100 µM (inactive) | > 100 µM (inactive) | > 100 µM (inactive) | > 100 µM (inactive) | > 100 µM (inactive) | > 100 µM (inactive) | > 100 µM (inactive) | > 100 µM (inactive) | – |

From ChEMBL document CHEMBL1201862, “PubChem BioAssay data set” (2004)
